Assay results reported in patent US6184422A, “Cyclohexanediol derivatives” (priority 1998, dated 2001).

Assays:
human VDR = target: T1, human VDR (Homo sapiens, UniProt P11473); test: VDR Activation (transcription activation assay in COS cells, luciferase reporter); format: cell-based; settings: COS cells cotransfected with human VDR and VDRE3/luciferase reporter; read-out: VDR act (ED50, nanomolar)
T1 construct: expressed in transfected cells; host or cells: COS cells, expression vector pSG5
T1 sequence (P11473 1-427): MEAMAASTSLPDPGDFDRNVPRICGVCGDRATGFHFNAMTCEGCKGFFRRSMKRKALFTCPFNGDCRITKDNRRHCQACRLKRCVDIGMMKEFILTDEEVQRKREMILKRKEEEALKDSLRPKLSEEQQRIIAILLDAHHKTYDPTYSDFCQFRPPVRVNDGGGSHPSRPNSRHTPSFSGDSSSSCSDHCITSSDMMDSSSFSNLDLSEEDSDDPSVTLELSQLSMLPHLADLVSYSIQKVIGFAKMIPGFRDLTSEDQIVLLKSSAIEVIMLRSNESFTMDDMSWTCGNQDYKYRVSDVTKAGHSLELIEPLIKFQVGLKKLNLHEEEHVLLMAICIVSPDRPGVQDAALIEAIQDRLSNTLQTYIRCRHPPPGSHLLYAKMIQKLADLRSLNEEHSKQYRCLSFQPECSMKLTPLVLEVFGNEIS
From the text: In order to measure the activation of the vitamin D receptor (VDR) by vitamin D analogs in cells a transcription activation assay was used. COS cells were cotransfected with the human VDR (expressed in pSG5) and a reporter gene containing three response elements (VDRE3) from the rat osteocalcine gene, the thymidine kinase basal promoter, and the luciferase reporter gene, respectively.

[1] = test system: epidermal thickening (acanthosis) in hairless mice; test: The Mouse Model: epidermal thickening (acanthosis) in hairless mice; settings: for ED50: Mus musculus, po, read-out: ED50: dose causing half-maximal epidermal thickening; for ratio (TI) HTD/ED50: HTDpo/ED50
[2] = as above; settings: mouse, in vivo, po
[3] = Calcium Liability (Tolerance Test in Mice); settings: for MTD: mouse, in vivo, sc; for HTD/VDR: ratio HTDsc mouse (μg/kg) / VDR act ED50 (nanomolar)
From the text: 1. Calcium Liability (Tolerance Test in Mice)
This test gives a global picture of calcemic liability. Profound changes in calcium homeostasis strongly affect the weight development of the animals. This parameter was used as a primary test for tolerance. […] Body weight was registered just before and at the end of a 5 day treatment period.

[4] = test system: epidermal proliferation in minipigs; test: animal or person; settings: for minimal effective dose: Sus scrofa, 168 h, read-out: Effective dose (dose that increases the normal LI at least 50%); for minimal effective dose / Calcemic dose: po; for Calcemic dose: minipig, in vivo, 10080 min; for TI (ratio Calc./Eff.): oral, calcemic dose / effective dose
Description: Orally administered vitamin D analogs can lead to epidermal proliferation in minipigs. This skin effect is considered as indicative for an antipsoriatic potential of vitamin D analogs. […] The pigs were daily observed as to adverse effects such as behavior, mobility, stool. At day seven bromodeoxyuridine (4 mg/kg) was injected intravenously into the treated pigs and 2 hours later skin biopsies (6 mm diameter) and blood were taken for analysis. The skin biopsies were fixed in formalin, and paraffin sections were prepared using standard procedures. Using standard immuno-histochemical techniques, cells in the S-phase (DNA synthesis phase) were labelled by the binding of a specific monoclonal antibody against the thymidine analogue bromodeoxyuridine. The number of labelled epidermal cells per unit of length along the surface was taken as a measure of epidermal proliferative activity (labelings index LI). Clinical chemistry was performed using Cobas Mira.
*The effective dose is the dose that increases the normal LI at least 50%

in vivo = settings: mouse, po

SMILES | EC50 (human VDR) [nM] | ED50 [1] [mg/kg] | ratio (TI) HTD/ED50 ([1]; hairless mice, oral) | MTD [2] [mg/kg] | MTD [3] [mg/kg] | HTD/VDR [3] | minimal effective dose [4] [mg/kg] | Calcemic dose [4] [mg/kg] | TI (ratio Calc./Eff.) ([4]; minipigs) | epidermal hyperproliferation (in words) ([4]; minipigs, even at 9 times the dose that induces hypercalcemia) | skin effects at the highest tolerated dose (in words) ([1]; hairless mice, oral, calcitriol animals treated for three days) | MTD (in vivo) [mg/kg]
C=C1/C(=C\C=C\CCCC(C)(C)C/C=C/C(O)(C(F)(F)F)C(F)(F)F)C[C@@H](O)C[C@@H]1O [C, (Z)-(1R,3S)-5-((2E,9E)-12,12,12-trifluoro-11-trifluoromethyl-11-hydroxy-7,7-dimethyl-dodec-2,9-dienylidene)-4-methylene-cyclohexane-1,3-diol] | 4 | 0.45 | 0.13 | 0.06 | 0.2 | 50 |  |  |  |  |  | 
CC(C)(O)CCCC(C)(C)CCC/C=C/C=C1C[C@@H](O)C[C@H](O)C1 [H, (2E)-(1R,3R)-5-(11-hydroxy-7,7,11-trimethyl-dodeca-2-enylidene)-cyclohexane-1,3-diol] | 280 |  |  |  | > 5 | 18 |  |  |  |  |  | 
CC(C)(CC#CC(O)(C(F)(F)F)C(F)(F)F)CCC/C=C/C=C1C[C@@H](O)C[C@H](O)C1 [I, (E)-(1R,3R)-5-[12,12,12-trifluoro-11-hydroxy-7,7-dimethyl-11-trifluoromethyl-dodec-2-en-9-ynylidene]-cyclohexane-1,3-diol] | 13 | 0.8 | 0.125 | 0.1 | 0.333 | 26 | 0.036 | 0.2 | 6 |  |  | 
CC(C)(CCC/C=C/C=C1C[C@@H](O)C[C@H](O)C1)CCCC(O)(C(F)(F)F)C(F)(F)F [Compound E, (1R,3R)-5-[(2E)-12,12,12-trifluoro-11-hydroxy-7,7-dimethyl-11-trifluoromethyl-dodec-2-enylidene)-cyclohexane-1,3-diol] | 6.6 | 0.2 | 0.2 | 0.04 | 0.1 | 15 |  |  |  |  |  | 
CC(C)(C/C=C/C(O)(C(F)(F)F)C(F)(F)F)CCC/C=C/C=C1C[C@@H](O)C[C@H](O)C1 [D, (1R,3R)-5-[(2E,9E)-12,12,12-trifluoro-11-trifluoromethyl-11-hydroxy-7,7-dimethyl-dodeca-2,9-dienylidene]-cyclohexane-1,3-diol] | 5.7 | 0.5 | 0.1 | 0.05 | 0.1 | 18 |  |  |  |  |  | 
C=C1/C(=C\C=C2/CCC[C@]3(C)[C@@H]([C@H](C)CCCC(C)(C)O)CC[C@@H]23)C[C@@H](O)C[C@@H]1O [Calcitriol, reference compound] |  | 0.5 |  |  |  |  | > 0.0225 | 0.003 |  | did not induce hyperproliferation | not able to elicit skin effects | 
C=C1/C(=C\C=C\CCCC(C)(C)C/C=C\C(O)(C(F)(F)F)C(F)(F)F)C[C@@H](O)C[C@@H]1O [B, (Z)-(1R,3S)-4-methylene-5-[(2E,9Z)-12,12,12-trifluoro-11-hydroxy-7,7-dimethyl-11-trifluoromethyl-dodeca-2,9-dienylidene]-cyclohexane-1,3-diol] | 50 | 3 | 0.13 | 0.4 | 3 | 60 | 1 | 2 | 2 |  |  | 
CC(C)(C/C=C\C(O)(C(F)(F)F)C(F)(F)F)CCC/C=C/C=C1C[C@@H](O)C[C@H](O)C1 [A, (1R,3R)-5-[(2E,9Z)-12,12,12-trifluoro-11-hydroxy-7,7-dimethyl-11-trifluoromethyl-dodeca-2,9-dienylidene)-cyclohexane-1,3-diol] | 180 | 7.5 | 0.13 | 1 | 2.5 | 14 | 0.1 | 5 | 50 |  |  | 
C=C1/C(=C\C=C\CCCC(C)(C)CCCC(C)(C)O)C[C@@H](O)C[C@@H]1O [G, (Z)-(1R,3S)-5-[(E)-11-hydroxy-7,7,11-trimethyl-dodec-2-enylidene]-4-methylene-cyclohexane-1,3-diol] | 110 | 60 | 0.33 |  | > 5 | 45 |  |  |  |  |  | 20
CC(C)(O)C#CCC(C)(C)CCC/C=C/C=C1C[C@@H](O)C[C@H](O)C1 [K, (10E)-(3R,5R)-12-(3,5-dihydroxy-cyclohexylidene)-6,6-dimethyl-2-methyl-dodec-10-en-3-yn-2-ol] | 220 |  |  |  | > 5 | > 23 |  |  |  |  |  | 
C=C1/C(=C\C=C\CCCC(C)(C)CC#CC(O)(C(F)(F)F)C(F)(F)F)C[C@@H](O)C[C@@H]1O [J, (Z)-(1R,3S)-4-methylene-5-[(E)-12,12,12-trifluoro-11-hydroxy-7,7-dimethyl-11-trifluoromethyl-dodec-2-en-9-ynylidene]-cyclohexane-1,3-diol] | 4.8 | 0.7 | 0.1 | 0.07 | 0.31 | 65 | 0.108 | > 0.324 | > 3 |  |  | 
C=C1/C(=C\C=C\CCCC(C)(C)CCCC(O)(C(F)(F)F)C(F)(F)F)C[C@@H](O)C[C@@H]1O [F, (Z)-(1R,3S)-5-[(2E)-12,12,12-trifluoro-11-hydroxy-7,7-dimethyl-11-trifluoromethyl-dodec-2-enylidene]-4-methylene-cyclohexane-1,3-diol] | 4 | 0.2 | 0.4 | 0.08 | 0.08 | 20 | 0.003 | 0.015 | 5 |  |  | 
